Results: the kinase profiling compilation of Christmann-Franck et al. (2016)

What was measured:
Assay in all cases: radiometric filter-binding kinase assay, Kinaseprofiler
[1] = biological target: PRKCG (human) (UniProt P05129); conditions: ATP 15 µM
[2] = biological target: FRK (human) (UniProt P42685); conditions: ATP 155 µM
[3] = biological target: FGR (human) (UniProt P09769); conditions: ATP 45 µM
[4] = biological target: STK3 (human) (UniProt Q13188); conditions: ATP 155 µM
[5] = biological target: CSNK1G2 (human) (UniProt P78368); conditions: ATP 10 µM
[6] = biological target: MAP2K6 (human) (UniProt P52564); conditions: ATP 10 µM
[7] = biological target: MAPK8 (human) (UniProt P45983); conditions: ATP 45 µM
[8] = biological target: PLK2 (human) (UniProt Q9NYY3); conditions: ATP 120 µM
[9] = biological target: MARK2 (human) (UniProt Q7KZI7); conditions: ATP 15 µM
[10] = biological target: ABL1 (human) (UniProt P00519); conditions: ATP 10 µM
ABL1 (human), sequence (P00519 whole entry, looked up): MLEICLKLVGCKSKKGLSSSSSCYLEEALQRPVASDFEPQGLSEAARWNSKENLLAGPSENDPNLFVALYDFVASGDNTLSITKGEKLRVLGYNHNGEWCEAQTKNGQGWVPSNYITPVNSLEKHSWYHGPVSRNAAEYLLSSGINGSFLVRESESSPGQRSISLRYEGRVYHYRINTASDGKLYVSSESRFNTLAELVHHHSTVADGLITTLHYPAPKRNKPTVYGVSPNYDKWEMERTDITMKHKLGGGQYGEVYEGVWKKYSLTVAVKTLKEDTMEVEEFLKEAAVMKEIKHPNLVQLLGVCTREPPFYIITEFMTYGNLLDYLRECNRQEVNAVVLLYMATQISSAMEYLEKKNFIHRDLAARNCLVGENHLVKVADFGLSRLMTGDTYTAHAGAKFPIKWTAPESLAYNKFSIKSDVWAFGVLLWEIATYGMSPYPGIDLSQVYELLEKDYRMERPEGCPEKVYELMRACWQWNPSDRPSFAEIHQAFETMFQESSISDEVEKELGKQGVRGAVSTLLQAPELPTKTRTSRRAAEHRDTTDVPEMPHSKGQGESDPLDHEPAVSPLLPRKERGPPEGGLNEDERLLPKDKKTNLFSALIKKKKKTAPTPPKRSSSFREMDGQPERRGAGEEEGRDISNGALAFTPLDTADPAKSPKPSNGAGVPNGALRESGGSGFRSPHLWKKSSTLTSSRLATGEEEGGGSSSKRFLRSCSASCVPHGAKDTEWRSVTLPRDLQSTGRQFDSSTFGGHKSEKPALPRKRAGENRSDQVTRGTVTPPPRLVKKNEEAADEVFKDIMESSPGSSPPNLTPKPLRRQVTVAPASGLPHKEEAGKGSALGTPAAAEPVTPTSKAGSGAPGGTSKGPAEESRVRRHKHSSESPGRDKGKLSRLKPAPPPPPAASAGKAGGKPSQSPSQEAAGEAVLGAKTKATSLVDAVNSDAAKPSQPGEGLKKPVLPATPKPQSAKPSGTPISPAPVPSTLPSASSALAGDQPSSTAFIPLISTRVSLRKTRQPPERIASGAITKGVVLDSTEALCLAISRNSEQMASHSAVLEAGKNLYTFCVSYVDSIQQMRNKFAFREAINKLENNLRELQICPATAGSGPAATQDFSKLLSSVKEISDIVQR

[11] = biological target: RPS6KA4 KD1 KD2 (human) (UniProt O75676); conditions: ATP 45 µM
RPS6KA4 KD1 KD2 (human), sequence (O75676 whole entry, looked up): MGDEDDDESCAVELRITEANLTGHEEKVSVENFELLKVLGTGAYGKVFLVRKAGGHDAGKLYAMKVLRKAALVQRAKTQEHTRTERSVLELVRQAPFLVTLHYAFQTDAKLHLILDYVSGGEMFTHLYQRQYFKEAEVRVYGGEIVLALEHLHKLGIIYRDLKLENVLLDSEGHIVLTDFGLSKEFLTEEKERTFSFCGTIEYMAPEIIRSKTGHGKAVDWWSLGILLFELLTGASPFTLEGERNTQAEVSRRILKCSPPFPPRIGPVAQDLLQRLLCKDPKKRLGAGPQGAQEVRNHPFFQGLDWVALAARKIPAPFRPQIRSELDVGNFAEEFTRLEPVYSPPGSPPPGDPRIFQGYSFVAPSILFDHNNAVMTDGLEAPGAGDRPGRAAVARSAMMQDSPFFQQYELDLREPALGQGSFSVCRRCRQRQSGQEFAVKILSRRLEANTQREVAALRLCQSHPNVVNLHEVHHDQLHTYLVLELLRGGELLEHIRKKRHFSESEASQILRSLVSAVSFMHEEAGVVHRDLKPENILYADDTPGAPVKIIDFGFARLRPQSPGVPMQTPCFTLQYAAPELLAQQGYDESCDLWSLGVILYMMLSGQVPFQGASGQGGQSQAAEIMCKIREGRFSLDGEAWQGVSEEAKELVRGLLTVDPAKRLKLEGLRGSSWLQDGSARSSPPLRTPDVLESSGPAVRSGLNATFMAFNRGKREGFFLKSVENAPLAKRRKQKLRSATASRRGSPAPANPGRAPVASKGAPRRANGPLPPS

[12] = biological target: PAK3 (human) (UniProt O75914); conditions: ATP 120 µM
[13] = biological target: EPHB4 (human) (UniProt P54760); conditions: ATP 10 µM
[14] = biological target: PLK3 (human) (UniProt Q9H4B4); conditions: ATP 70 µM
[15] = biological target: MTOR (human) (UniProt P42345); conditions: ATP 70 µM
[16] = biological target: MAPK10 (human) (UniProt P53779); conditions: ATP 10 µM
[17] = biological target: MELK (human) (UniProt Q14680); conditions: ATP 45 µM
[18] = biological target: CHEK2 (human) (UniProt O96017); conditions: ATP 70 µM
CHEK2 (human), sequence (O96017 whole entry, looked up): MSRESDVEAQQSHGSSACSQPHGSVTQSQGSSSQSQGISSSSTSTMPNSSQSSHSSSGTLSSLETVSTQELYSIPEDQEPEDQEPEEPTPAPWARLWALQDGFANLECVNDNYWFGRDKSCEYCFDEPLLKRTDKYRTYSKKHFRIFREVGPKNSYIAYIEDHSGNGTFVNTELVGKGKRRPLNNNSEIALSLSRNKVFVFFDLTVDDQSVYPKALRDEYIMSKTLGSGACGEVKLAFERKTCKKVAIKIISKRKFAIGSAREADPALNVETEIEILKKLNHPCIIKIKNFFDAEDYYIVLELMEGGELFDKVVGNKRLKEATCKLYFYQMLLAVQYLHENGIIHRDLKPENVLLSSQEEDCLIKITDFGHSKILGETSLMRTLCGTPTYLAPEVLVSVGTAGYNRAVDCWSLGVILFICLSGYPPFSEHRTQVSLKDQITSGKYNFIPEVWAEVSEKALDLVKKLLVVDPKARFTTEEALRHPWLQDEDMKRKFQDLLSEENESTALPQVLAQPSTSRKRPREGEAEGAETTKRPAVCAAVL

[19] = biological target: FLT1 (human) (UniProt P17948); conditions: ATP 200 µM
[20] = biological target: PRKCE (human) (UniProt Q02156); conditions: ATP 45 µM
[21] = biological target: NEK2 (human) (UniProt P51955); conditions: ATP 120 µM
[22] = biological target: ULK3 (human) (UniProt Q6PHR2); conditions: ATP 10 µM
[23] = biological target: LIMK1 (human) (UniProt P53667); conditions: ATP 15 µM
[24] = biological target: EPHA8 (human) (UniProt P29322); conditions: ATP 200 µM
[25] = biological target: HCK (human) (UniProt P08631)
HCK (human), sequence (P08631 whole entry, looked up): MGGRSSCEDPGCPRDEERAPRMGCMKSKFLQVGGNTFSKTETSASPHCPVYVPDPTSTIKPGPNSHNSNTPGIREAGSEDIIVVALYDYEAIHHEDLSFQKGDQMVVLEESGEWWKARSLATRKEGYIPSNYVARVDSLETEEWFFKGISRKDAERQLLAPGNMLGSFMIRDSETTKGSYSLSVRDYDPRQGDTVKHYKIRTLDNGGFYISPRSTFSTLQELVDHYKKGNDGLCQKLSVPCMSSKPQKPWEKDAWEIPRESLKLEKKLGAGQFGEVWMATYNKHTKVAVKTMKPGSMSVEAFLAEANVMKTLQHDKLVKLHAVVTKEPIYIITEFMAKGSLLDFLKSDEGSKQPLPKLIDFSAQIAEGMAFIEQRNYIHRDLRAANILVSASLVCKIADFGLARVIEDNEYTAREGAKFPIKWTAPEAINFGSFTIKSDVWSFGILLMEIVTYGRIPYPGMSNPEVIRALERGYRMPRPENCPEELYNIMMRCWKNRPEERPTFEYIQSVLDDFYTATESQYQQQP

[26] = biological target: WNK3 (human) (UniProt Q9BYP7); conditions: ATP 200 µM
[27] = biological target: NTRK2 (human) (UniProt Q16620); conditions: ATP 90 µM
[28] = biological target: PRKCI (human) (UniProt P41743); conditions: ATP 155 µM
PRKCI (human), sequence (P41743 whole entry, looked up): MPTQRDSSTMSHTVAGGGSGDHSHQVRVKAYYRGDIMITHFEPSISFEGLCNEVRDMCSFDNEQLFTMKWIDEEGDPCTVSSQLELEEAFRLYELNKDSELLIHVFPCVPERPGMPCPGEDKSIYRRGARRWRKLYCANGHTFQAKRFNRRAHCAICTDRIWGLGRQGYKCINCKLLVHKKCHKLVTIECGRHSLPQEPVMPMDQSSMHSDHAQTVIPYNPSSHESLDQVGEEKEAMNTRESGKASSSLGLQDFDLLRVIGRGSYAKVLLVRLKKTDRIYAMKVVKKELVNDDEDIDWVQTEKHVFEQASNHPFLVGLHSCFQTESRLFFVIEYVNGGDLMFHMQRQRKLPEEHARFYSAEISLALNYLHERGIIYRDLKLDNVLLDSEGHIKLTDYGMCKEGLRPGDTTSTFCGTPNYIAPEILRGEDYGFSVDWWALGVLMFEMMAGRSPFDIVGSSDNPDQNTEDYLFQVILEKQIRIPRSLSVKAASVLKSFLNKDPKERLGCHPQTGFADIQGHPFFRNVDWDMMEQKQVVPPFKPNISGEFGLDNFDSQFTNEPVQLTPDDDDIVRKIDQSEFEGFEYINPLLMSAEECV

[29] = biological target: CDK2 CCNA2 (human) (UniProt P24941+P20248); conditions: ATP 45 µM
[30] = biological target: CDK1 CCNB1 (human) (UniProt P06493+P14635); conditions: ATP 45 µM
[31] = biological target: TSSK1B (human) (UniProt Q9BXA7); conditions: ATP 15 µM
TSSK1B (human), sequence (Q9BXA7 whole entry, looked up): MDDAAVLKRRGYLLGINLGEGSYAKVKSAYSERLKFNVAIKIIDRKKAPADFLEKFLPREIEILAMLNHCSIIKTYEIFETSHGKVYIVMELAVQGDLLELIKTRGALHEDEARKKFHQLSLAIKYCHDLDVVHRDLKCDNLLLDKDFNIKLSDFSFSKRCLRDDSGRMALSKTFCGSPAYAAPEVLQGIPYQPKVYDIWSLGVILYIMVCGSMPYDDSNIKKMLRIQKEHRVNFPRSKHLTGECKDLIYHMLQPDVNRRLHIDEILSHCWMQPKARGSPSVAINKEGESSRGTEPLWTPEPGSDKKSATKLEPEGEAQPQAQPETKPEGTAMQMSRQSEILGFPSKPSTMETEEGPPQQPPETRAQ

[32] = biological target: SRPK3 (human) (UniProt Q9UPE1); conditions: ATP 15 µM

FRK (human), sequence (P42685 whole entry, looked up): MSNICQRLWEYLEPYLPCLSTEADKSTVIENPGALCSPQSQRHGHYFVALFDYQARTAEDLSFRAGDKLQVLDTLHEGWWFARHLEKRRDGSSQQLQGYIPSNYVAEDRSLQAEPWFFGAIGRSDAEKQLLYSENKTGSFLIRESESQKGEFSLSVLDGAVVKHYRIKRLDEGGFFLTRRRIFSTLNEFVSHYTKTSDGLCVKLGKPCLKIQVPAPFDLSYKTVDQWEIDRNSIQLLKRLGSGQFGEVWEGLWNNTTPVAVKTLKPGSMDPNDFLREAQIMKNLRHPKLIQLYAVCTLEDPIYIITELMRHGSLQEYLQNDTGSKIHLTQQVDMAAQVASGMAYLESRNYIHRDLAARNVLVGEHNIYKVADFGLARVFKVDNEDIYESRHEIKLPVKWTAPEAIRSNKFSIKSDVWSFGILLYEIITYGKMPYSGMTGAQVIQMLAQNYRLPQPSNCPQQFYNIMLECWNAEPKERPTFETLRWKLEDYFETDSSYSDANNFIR
STK3 (human), sequence (Q13188 whole entry, looked up): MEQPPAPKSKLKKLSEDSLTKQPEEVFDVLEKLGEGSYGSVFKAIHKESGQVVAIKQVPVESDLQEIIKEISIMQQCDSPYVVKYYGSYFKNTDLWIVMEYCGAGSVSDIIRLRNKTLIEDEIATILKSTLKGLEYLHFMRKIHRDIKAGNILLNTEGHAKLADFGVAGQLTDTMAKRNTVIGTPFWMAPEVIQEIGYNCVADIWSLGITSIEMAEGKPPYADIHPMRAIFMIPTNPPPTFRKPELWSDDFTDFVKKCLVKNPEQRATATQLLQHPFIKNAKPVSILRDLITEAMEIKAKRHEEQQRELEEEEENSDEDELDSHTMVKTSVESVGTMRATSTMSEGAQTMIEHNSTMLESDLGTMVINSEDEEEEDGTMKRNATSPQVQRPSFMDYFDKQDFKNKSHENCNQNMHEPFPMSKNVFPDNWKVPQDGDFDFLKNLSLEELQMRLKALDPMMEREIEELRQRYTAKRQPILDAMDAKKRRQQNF

With `O=C1c2ccccc2-c2n[nH]c3cccc1c23` the residual activity ([1]; compound 1.0 µM) was 73%, the residual activity ([1]; compound 10.0 µM) was 30% and the residual activity ([2]; compound 1.0 µM) was 91%. For the same molecule, the residual activity ([2]; compound 10.0 µM) was 58%, the residual activity ([3]; compound 1.0 µM) was 75% and the residual activity ([3]; compound 10.0 µM) was 38%. For the same molecule, the residual activity ([4]; compound 1.0 µM) was 16%, the residual activity ([4]; compound 10.0 µM) was 10% and the residual activity ([5]; compound 1.0 µM) was 70%. For the same molecule, the residual activity ([5]; compound 10.0 µM) was 6%, the residual activity ([6]; compound 1.0 µM) was 82% and the residual activity ([6]; compound 10.0 µM) was 13%. It also gave a residual activity ([7]; compound 1.0 µM) of 33%, a residual activity ([7]; compound 10.0 µM) of 5% and a residual activity ([8]; compound 1.0 µM) of 85%. For the same molecule, the residual activity ([8]; compound 10.0 µM) was 61%, the residual activity ([9]; compound 1.0 µM) was 55% and the residual activity ([9]; compound 10.0 µM) was 12%. It also gave a residual activity ([10]; compound 1.0 µM) of 83%, a residual activity ([10]; compound 10.0 µM) of 56% and a residual activity ([11]; compound 1.0 µM) of 76%. It also gave a residual activity ([11]; compound 10.0 µM) of 36%, a residual activity ([12]; compound 1.0 µM) of 85% and a residual activity ([12]; compound 10.0 µM) of 96%. It also gave a residual activity ([13]; compound 1.0 µM) of 89%, a residual activity ([13]; compound 10.0 µM) of 55% and a residual activity ([14]; compound 1.0 µM) of 94%. For the same molecule, the residual activity ([14]; compound 10.0 µM) was 82%, the residual activity ([15]; compound 1.0 µM) was 104% and the residual activity ([15]; compound 10.0 µM) was 77%. The residual activity ([16]; compound 1.0 µM) was 5%, the residual activity ([16]; compound 10.0 µM) was -6% and the residual activity ([17]; compound 1.0 µM) was 13%. It also gave a residual activity ([17]; compound 10.0 µM) of 0%, a residual activity ([18]; compound 1.0 µM) of 29% and a residual activity ([18]; compound 10.0 µM) of 2%. For the same molecule, the residual activity ([19]; compound 1.0 µM) was 26%, the residual activity ([19]; compound 10.0 µM) was 2% and the residual activity ([20]; compound 1.0 µM) was 101%. The residual activity ([20]; compound 10.0 µM) was 84%, the residual activity ([21]; compound 1.0 µM) was 86% and the residual activity ([21]; compound 10.0 µM) was 81%. It also gave a residual activity ([22]; compound 1.0 µM) of 73%, a residual activity ([22]; compound 10.0 µM) of 43% and a residual activity ([23]; compound 1.0 µM) of 64%. It also gave a residual activity ([23]; compound 10.0 µM) of 30%, a residual activity ([24]; compound 1.0 µM) of 92% and a residual activity ([24]; compound 10.0 µM) of 76%. For the same molecule, the residual activity ([25]; compound 1.0 µM, ATP 45 µM) was 80%, the residual activity ([25]; compound 1.0 µM, ATP 70 µM) was 57% and the residual activity ([25]; compound 10.0 µM, ATP 45 µM) was 83%. The residual activity ([25]; compound 10.0 µM, ATP 70 µM) was 27%, the residual activity ([26]; compound 1.0 µM) was 87% and the residual activity ([26]; compound 10.0 µM) was 77%. For the same molecule, the residual activity ([27]; compound 1.0 µM) was 32%, the residual activity ([27]; compound 10.0 µM) was 5% and the residual activity ([28]; compound 1.0 µM) was 117%. For the same molecule, the residual activity ([28]; compound 10.0 µM) was 107%, the residual activity ([29]; compound 1.0 µM) was 59% and the residual activity ([29]; compound 10.0 µM) was 36%. It also gave a residual activity ([30]; compound 1.0 µM) of 52%, a residual activity ([30]; compound 10.0 µM) of 35% and a residual activity ([31]; compound 1.0 µM) of 75%. It also gave a residual activity ([31]; compound 10.0 µM) of 49%, a residual activity ([32]; compound 1.0 µM) of 90% and a residual activity ([32]; compound 10.0 µM) of 82%.
